Laboratory results taken from patent US20250388605A1, “HETEROBIFUNCTIONAL COMPOUNDS AND METHODS OF TREATING DISEASE” (Halda Therapeutics OpCo, Inc., priority 2022, published 2025).

Columns and labels:
T47D cells = assay: Cellular Growth Inhibition Assay for T47D Cells (CellTiter-Glo); type: cell-based, human; settings: 72 hours
Method in brief: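 GI50 values derive from four-parameter regression of CellTiter-Glo 2.0 luminescence, using zero luminescence as baseline. Human breast cancer T47D cells (3000/well; DMEM, 10% FBS, 0.2 units/mL insulin) were exposed for 72 h to compound dilutions at 0.5% DMSO, with dosing starting 24 h after seeding.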

[1] = system: T-Rex 293 cell line SC3 cells lacking increased expression of androgen receptor protein; assay: Cellular growth inhibition, T-Rex 293 SC3 cells without doxycycline (no increased androgen receptor expression), CellTiter-Glo; type: cell-based; settings: T-Rex 293 SC3 cells not exposed to doxycycline (no increased androgen receptor expression), 72 hours
Method in brief: (§1)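 Growth inhibition is measured in an inducible AR-expressing T-Rex 293 clone, SC3, cultured with or without 10 ng/mL doxycycline in hormone-depleted medium. Test compounds are applied for 72 hours. GI50 values derive from CellTiter-Glo 2.0 signal fitted by four-parameter regression.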

[2] = system: T-Rex 293 cell line SC3 cells having increased expression of androgen receptor protein due to exposure to doxycycline; assay: Cellular growth inhibition, T-Rex 293 SC3 cells with doxycycline (increased androgen receptor expression), CellTiter-Glo; type: cell-based; settings: T-Rex 293 SC3 cells with 10 ng/mL doxycycline (increased androgen receptor expression), 72 hours, CellTiter-Glo 2.0
Method in brief: as §1

VCaP cells = assay: Cellular growth inhibition assay for VCaP cells, CellTiter-Glo; type: cell-based, human; settings: 72 hours
Method in brief: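 GI50 values come from four-parameter curve fits of luminescence data normalized to a zero baseline. Compound, in medium with 0.5% DMSO, was added one day after plating and left for 72 h before CellTiter-Glo 2.0 addition.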

[3] = target: T1, progesterone receptor ligand binding domain (GST-tagged PR LBD) (Homo sapiens, UniProt P06401); assay: FP Assay for Binding Affinity to Progesterone Receptor (PolarScreen Progesterone Receptor Competitor Assay Kit); settings: fluorescence polarization, Fluormone tracer, 2 hours at room temperature
T1 construct: purchased Life Technologies A15905 or a15906
T1 sequence (P06401 679-913 limits assumed): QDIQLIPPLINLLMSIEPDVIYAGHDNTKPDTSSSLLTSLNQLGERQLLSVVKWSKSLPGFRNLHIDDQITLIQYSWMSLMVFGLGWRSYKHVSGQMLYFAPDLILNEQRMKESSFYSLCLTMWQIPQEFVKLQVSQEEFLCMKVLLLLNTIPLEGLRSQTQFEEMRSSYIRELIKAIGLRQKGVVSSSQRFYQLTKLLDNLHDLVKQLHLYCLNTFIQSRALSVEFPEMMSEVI
Description: Exemplary compounds were tested for ability to bind to the progesterone receptor ligand binding domain (LBD).
Compounds were tested using the PolarScreen™ Progesterone Receptor Competitor Assay Kit (Life Technologies Cat #A15905 or a15906), as per the manufacturer's instructions. Briefly, GST-tagged PR LBD, Fluormone tracer, and compound were mixed and incubated for 2 hours at room temperature in the dark. Following incubation, the plates were spun at 3000×g for 30 seconds, then sealed with an optical adhesive cover, and fluorescence polarization was measured using appropriate excitation and emission filters with an EnVision Plate Reader (Perkin Elmer). Compound concentration vs. mP value were plotted in Prism (GraphPad). A four-parameter non-linear regression curve fit was applied to dose-response data to determine the half-maximal inhibitory concentration (IC50) for each test compound.

[4] = system: T-Rex 293 cell line SC cells lacking increased expression of progesterone receptor isoform B protein; assay: Cellular growth inhibition assay, T-Rex 293 SC cells not exposed to doxycycline (no increased progesterone receptor isoform B expression), CellTiter-Glo; type: cell-based; settings: T-Rex 293 SC cells without doxycycline (no increased PR isoform B), 72 hours
Description: (§2) The SC cells were seeded on poly-D-lysine coated, black clear-bottom 384-well plates at 2500/well, in 25 μL Phenol Red Free Dulbecco's Modified Eagle Medium (DMEM) supplemented with 10% w/w charcoal-dextran treated fetal bovine serum (FBS) and 1% w/w pen-strep, with or without 10 ng/mL doxycycline. Pen-Strep is a commercially available mixture of penicillin G and streptomycin, which is used in mammalian cell culture media to prevent bacterial contamination. Phenol Red Free Dulbecco's Modified Eagle Medium (DMEM) supplemented with 10% w/w charcoal-dextran treated fetal bovine serum (FBS) and 1% w/w pen-strep, with or without 10 ng/mL doxycycline is herein referred to as Treatment Medium. Following seeding of cells in the plates, the plates were spun at 300×g for 30 seconds, then equilibrated to room temperature for 30 minutes, and then deposited in a humidified tissue culture incubator maintained at 37° C. with 5% CO2.
(§3) At 24 hours after seeding of the cells, dilutions of test compound were prepared in DMSO and dissolved in Treatment Medium, to achieve a final DMSO concentration of 0.5% w/w, thereby providing the Test Compound Solution. A 25 μL aliquot of the Test Compound Solution was added to cells in the well plates. An equal volume of a solution containing DMSO and Treatment Medium was used as a negative control. Following treatment of cells with Test Compound Solution or said equal volume of a solution containing DMSO and Treatment Medium, the plates were spun at 300×g for 30 seconds, and then left in an incubator for 72 hours.
(§4) At the end of the treatment duration, cell viability was quantified with CellTiter-Glo 2.0 reagent (Promega Cat #G9243). For this purpose, plates were equilibrated to room temperature for 30 minutes, and then 25 μL of CellTiter-Glo 2.0 reagent was added to cells in the plate wells. Plates were then agitated on a shaker for two minutes at 500 rpm and subsequently incubated at room temperature for 10 minutes. Following incubation, the plates were spun at 3000×g for 30 seconds, then sealed with an optical adhesive cover, and luminescence readings were measured with an EnVision Plate Reader (Perkin Elmer).
(§5) Data was normalized using zero luminescence for baseline. A four-parameter non-linear regression curve fit was applied to dose-response data in GraphPad Prism data analysis software to determine the half-maximal growth inhibitory concentration (GI50) for each test compound.

[5] = system: T-Rex 293 cell line SC cells having increased expression of progesterone receptor isoform B protein; assay: Cellular growth inhibition assay, T-Rex 293 SC cells exposed to doxycycline (increased progesterone receptor isoform B expression), CellTiter-Glo; type: cell-based; settings: T-Rex 293 SC cells with 10 ng/mL doxycycline (increased PR isoform B), 72 hours
Description: as §2, §3, §4, §5

SMILES | GI50 (T47D cells; Homo sapiens) [nM] | GI50 [1] [nM] | GI50 [2] [nM] | GI50 (VCaP cells; Homo sapiens) [nM] | IC50 [3] [nM] | GI50 (T47D cells) [nM] | GI50 (VCaP cells) [nM] | GI50 [4] [nM] | GI50 [5] [nM]
CN(CCCCc1ccc(Oc2ccc(C(C)(C)O)cc2-c2cn(C)c(=O)c3[nH]ccc23)cc1)c1ncc(C(=O)N[C@H]2C(C)(C)[C@H](Oc3ccc(C#N)c(Cl)c3)C2(C)C)cn1 [Compound I-218] | 500 to 1500 | 1500 to 3000 | < 500 | 1500 to 3000 | 50 to 500 | – | – | – | –
CCS(=O)(=O)Nc1ccc(Oc2cccc(N(C)CCNC3CCN(c4ncc(C(=O)N[C@H]5C(C)(C)[C@H](Oc6ccc(C#N)c(Cl)c6)C5(C)C)cn4)CC3)c2)c(-c2cn(C)c(=O)c3[nH]ccc23)c1 [Compound I-83] | < 500 | > 3000 | < 500 | < 500 | 50 to 500 | – | – | – | –
CC(C)N(CCOc1cccc(Oc2ccc(C(C)(C)O)cc2-c2cn(C)c(=O)c3[nH]ccc23)c1F)C1CCN(c2ncc(C(=O)N[C@H]3C(C)(C)[C@H](Oc4ccc(C#N)c(Cl)c4)C3(C)C)cn2)CC1 [Compound I-224] | < 500 | < 500 | < 500 | < 500 | 50 to 500 | – | – | – | –
CC(C)N(CCN(C)C1CCN(c2ncc(C(=O)N[C@H]3C(C)(C)[C@H](Oc4ccc(C#N)c(Cl)c4)C3(C)C)cn2)CC1)c1cccc(Oc2ccc(C(C)(C)O)cc2-c2cn(C)c(=O)c3[nH]ccc23)c1F [Compound I-226] | – | 500 to 1500 | < 500 | – | < 50 | > 3000 | 500 to 1500 | – | –
Cn1cc(-c2cc(C(C)(C)O)ccc2Oc2ccc(N3CC(C4CCN(c5ncc(C(=O)N[C@H]6C(C)(C)[C@H](Oc7ccc(C#N)c(Cl)c7)C6(C)C)cn5)CC4)C3)cc2)c2cc[nH]c2c1=O [Compound I-299] | – | > 3000 | < 500 | – | – | < 500 | < 500 | 500 to 1500 | < 500
Cn1cc(-c2cc(C(C)(C)O)ccc2Oc2ccc(C3CN(C4CCN(c5ncc(C(=O)N[C@H]6C(C)(C)[C@H](Oc7ccc(C#N)c(Cl)c7)C6(C)C)cn5)CC4)C3)cc2)c2cc[nH]c2c1=O [Compound I-304] | – | < 500 | < 500 | – | – | < 500 | < 500 | 500 to 1500 | < 500
Cn1cc(-c2cc(C(C)(C)O)ccc2Oc2ccc(N3CC(OC4CN(c5ncc(C(=O)N[C@H]6C(C)(C)[C@H](Oc7ccc(C#N)c(Cl)c7)C6(C)C)cn5)C4)C3)cc2)c2cc[nH]c2c1=O [Compound I-303] | – | < 500 | < 500 | – | – | < 500 | < 500 | 500 to 1500 | < 500
CCS(=O)(=O)Nc1ccc(Oc2cccc(N3CCC(CC4CCN(c5ncc(C(=O)N[C@H]6C(C)(C)[C@H](Oc7ccc(C#N)c(Cl)c7)C6(C)C)cn5)CC4)CC3)c2)c(-c2cn(C)c(=O)c3[nH]ccc23)c1 [Compound I-36] | < 500 | > 3000 | < 500 | < 500 | – | – | – | > 3000 | < 500
CCS(=O)(=O)Nc1ccc(Oc2cccc(OCCCC3CCN(c4ncc(C(=O)N[C@H]5C(C)(C)[C@H](Oc6ccc(C#N)c(Cl)c6)C5(C)C)cn4)CC3)c2)c(-c2cn(C)c(=O)c3[nH]ccc23)c1 [Compound I-27] | < 500 | 500 to 1500 | < 500 | < 500 | – | – | – | > 3000 | < 500
CCS(=O)(=O)Nc1ccc(Oc2cccc(N3CC(OC4CCN(c5ncc(C(=O)N[C@H]6C(C)(C)[C@H](Oc7ccc(C#N)c(Cl)c7)C6(C)C)cn5)CC4)C3)c2F)c(-c2cn(C)c(=O)c3[nH]ccc23)c1 [Compound I-175] | – | < 500 | < 500 | – | – | < 500 | < 500 | > 3000 | < 500
CCS(=O)(=O)c1ccc(Oc2cccc(CCCCN3CC4(C3)CN(c3ncc(C(=O)N[C@H]5C(C)(C)[C@H](Oc6ccc(C#N)c(Cl)c6)C5(C)C)cn3)C4)c2F)c(-c2cn(C)c(=O)c3[nH]ccc23)c1 [Compound I-206] | < 500 | < 500 | < 500 | < 500 | – | – | – | < 500 | < 500
CN(CCOc1ccc(Oc2ccc(C(C)(C)O)cc2-c2cn(C)c(=O)c3[nH]ccc23)cc1)c1ncc(C(=O)N[C@H]2C(C)(C)[C@H](Oc3ccc(C#N)c(Cl)c3)C2(C)C)cn1 [Compound I-199] | < 500 | < 500 | < 500 | < 500 | – | – | – | < 500 | < 500
CCS(=O)(=O)Nc1ccc(Oc2cccc(N3CC(C4CCN(c5ncc(C(=O)N[C@H]6C(C)(C)[C@H](Oc7ccc(C#N)c(Cl)c7)C6(C)C)cn5)CC4)C3)c2)c(-c2cn(C)c(=O)c3[nH]ccc23)c1 [Compound I-74] | < 500 | < 500 | < 500 | < 500 | > 2500 | – | – | – | –
Cn1cc(-c2cc(C(C)(C)O)ccc2Oc2ccc(N3CC(CC4CN(c5cnc(C(=O)N[C@H]6C(C)(C)[C@H](Oc7ccc(C#N)c(Cl)c7)C6(C)C)cn5)C4)C3)cc2)c2cc[nH]c2c1=O [Compound I-317] | < 500 | < 500 | < 500 | < 500 | – | – | – | 500 to 1500 | < 500
CCS(=O)(=O)Nc1ccc(Oc2cccc(OC3CC4(CCN(c5ncc(C(=O)N[C@H]6C(C)(C)[C@H](Oc7ccc(C#N)c(Cl)c7)C6(C)C)cn5)CC4)C3)c2)c(-c2cn(C)c(=O)c3[nH]ccc23)c1 [Compound I-44] | < 500 | > 3000 | < 500 | < 500 | – | – | – | > 3000 | < 500
CN(CCc1ccc(Oc2ccc(C(C)(C)O)cc2-c2cn(C)c(=O)c3[nH]ccc23)cc1)c1ncc(C(=O)N[C@H]2C(C)(C)[C@H](Oc3ccc(C#N)c(Cl)c3)C2(C)C)cn1 [Compound I-198] | < 500 | < 500 | < 500 | < 500 | – | – | – | < 500 | < 500
CCS(=O)(=O)c1ccc(Oc2cccc(CCCOC3CC4(C3)CN(c3ncc(C(=O)N[C@H]5C(C)(C)[C@H](Oc6ccc(C#N)c(Cl)c6)C5(C)C)cn3)C4)c2F)c(-c2cn(C)c(=O)c3[nH]ccc23)c1 [Compound I-205] | < 500 | < 500 | < 500 | < 500 | – | – | – | < 500 | < 500
